Molecular target: human TRPA1 (Homo sapiens (Human), UniProt O75762)
Assay: FLIPR Tetra calcium influx assay, block of cinnamaldehyde-induced calcium influx in CHO cells expressing TRPA1 (human)
Format: cell-based
Details: 20 min compound incubation, 75 uM cinnamaldehyde (~EC80), Hill coefficient fixed to 1.5, read-out: hTRPA1 AUC IC50
In short: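 CHO cells loaded with calcium dye, preincubated with compounds 20 min at room temperature in HBSS/20 mM HEPES pH 7.4 with 0.02% BSA. Channels activated by ~EC80 cinnamaldehyde (75 uM human, 45 uM rat); block of calcium influx read on FLIPR Tetra, IC50 fitted with fixed Hill coefficient.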

human TRPA1, sequence (O75762 whole entry): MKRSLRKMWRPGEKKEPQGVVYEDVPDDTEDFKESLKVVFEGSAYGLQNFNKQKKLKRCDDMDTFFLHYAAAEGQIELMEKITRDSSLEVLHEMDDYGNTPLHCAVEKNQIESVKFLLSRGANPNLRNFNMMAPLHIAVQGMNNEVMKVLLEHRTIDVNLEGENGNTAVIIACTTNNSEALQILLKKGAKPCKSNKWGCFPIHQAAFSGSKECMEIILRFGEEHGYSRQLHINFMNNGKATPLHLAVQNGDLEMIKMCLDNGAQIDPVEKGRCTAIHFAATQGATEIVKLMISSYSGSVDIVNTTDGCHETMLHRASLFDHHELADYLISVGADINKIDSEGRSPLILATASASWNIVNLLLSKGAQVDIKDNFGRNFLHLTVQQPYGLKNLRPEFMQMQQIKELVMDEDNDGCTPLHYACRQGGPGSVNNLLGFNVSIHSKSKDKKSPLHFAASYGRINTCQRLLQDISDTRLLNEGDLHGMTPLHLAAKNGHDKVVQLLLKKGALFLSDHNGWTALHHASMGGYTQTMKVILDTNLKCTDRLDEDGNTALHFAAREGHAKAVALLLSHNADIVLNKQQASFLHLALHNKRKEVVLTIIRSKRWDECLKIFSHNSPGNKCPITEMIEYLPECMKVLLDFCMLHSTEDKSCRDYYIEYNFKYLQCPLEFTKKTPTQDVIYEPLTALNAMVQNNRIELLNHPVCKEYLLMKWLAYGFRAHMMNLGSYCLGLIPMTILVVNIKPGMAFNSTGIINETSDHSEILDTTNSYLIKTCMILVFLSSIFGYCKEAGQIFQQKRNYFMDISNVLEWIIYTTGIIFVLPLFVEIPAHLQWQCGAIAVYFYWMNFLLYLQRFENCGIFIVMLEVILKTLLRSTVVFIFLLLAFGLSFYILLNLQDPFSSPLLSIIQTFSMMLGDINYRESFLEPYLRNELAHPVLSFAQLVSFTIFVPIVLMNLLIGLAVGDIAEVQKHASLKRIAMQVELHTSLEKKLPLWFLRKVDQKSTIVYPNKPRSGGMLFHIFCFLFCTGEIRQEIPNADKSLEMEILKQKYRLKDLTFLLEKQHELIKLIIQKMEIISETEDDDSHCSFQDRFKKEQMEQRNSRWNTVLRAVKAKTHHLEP

Structure (SMILES) | IC50 [nM]
C[C@@]1(F)C[C@@H](C(=O)NCc2cc(F)cc(-c3cnc(C(F)(F)F)nc3)c2)N(S(=O)(=O)c2ccc(F)cc2)C1 [Example 52, (2S,4R)-4-fluoro-N-(3-fluoro-5-(2-(trifluoromethyl)pyrimidin-5-yl)benzyl)-1-((4-fluorophenyl)sulfonyl)-4-methylpyrrolidine-2-carboxamide] | 16
C[C@@H]1C[C@@H](C(=O)NCc2cc(-c3ccc(C(F)(F)F)nc3)ncn2)N1S(=O)(=O)c1ccc(F)cc1 [Example 200, (2S,4R)-1-[(4-fluorobenzene)sulfonyl]-4-methyl-N-([6-[6-(trifluoromethyl)pyridin-3-yl]pyrimidin-4-yl]methyl)azetidine-2-carboxamide] | 333
O=C(NCc1cc(-c2ccc(C(F)(F)F)nc2)c(F)cn1)[C@@H]1C[C@@H](F)CN1S(=O)(=O)c1ccc(F)cc1 [Example 140, (2S,4R)-4-fluoro-N-((5′-fluoro-6-(trifluoromethyl)-3,4′-bipyridin-2′-yl)methyl)-1-(4-fluorophenylsulfonyl)pyrrolidine-2-carboxamide] | 20
COCCOc1nc(C(F)(F)F)ccc1-c1cc(F)cc(CNC(=O)[C@@H]2C[C@@H](F)CN2S(=O)(=O)c2ccc(F)cc2)c1 [Example 190, (2S,4R)-4-fluoro-N-([3-fluoro-5-[2-(2-methoxyethoxy)-6-(trifluoromethyl)pyridin-3-yl]phenyl]methyl)-1-[(4-fluorobenzene)sulfonyl]pyrrolidine-2-carboxamide] | 52
C[C@@]1(F)C[C@@H](C(=O)NCc2cc(-c3ccc(OC(F)(F)F)cc3)ncn2)N(S(=O)(=O)c2ccc(F)cc2)C1 [Example 46, (2S,4R)-4-fluoro-1-((4-fluorophenyl)sulfonyl)-4-methyl-N-((6-(4-(trifluoromethoxy)phenyl)pyrimidin-4-yl)methyl)pyrrolidine-2-carboxamide] | 20
O=C(NCc1ccnc(-c2cnc(C(F)(F)F)nc2)c1)[C@@H]1[C@H]2C[C@H]2CN1S(=O)(=O)c1ccc(F)cc1 [Example 172, (1R,4S,5S)-3-(4-fluorophenyl)sulfonyl-N-[[2-[2-(trifluoromethyl)pyrimidin-5-yl]-4-pyridyl]methyl]-3-azabicyclo[3.1.0]hexane-4-carboxamide] | 38
O=C(NCc1cc(-c2cnc(C(F)(F)F)nc2)ccn1)[C@@H]1C[C@@H](F)CN1S(=O)(=O)c1ccc(F)cc1 [Example 53, (2S,4R)-4-fluoro-1-(4-fluorophenyl)sulfonyl-N-[[4-[2-(trifluoromethyl)pyrimidin-5-yl]-2-pyridyl]methyl]pyrrolidine-2-carboxamide] | 411
O=C(NCc1cc(-c2ccc(OC(F)F)cc2)ncn1)[C@@H]1C[C@@H](F)CN1S(=O)(=O)c1ccc(F)cc1 [Example 64, (2S,4R)—N-[[6-[4-(difluoromethoxy)phenyl]pyrimidin-4-yl]methyl]-4-fluoro-1-(4-fluorophenyl)sulfonyl-pyrrolidine-2-carboxamide] | 41
O=C(NCc1cc(F)cc(-c2ccc(OC(F)F)nc2)c1)[C@@H]1C[C@@H](F)CN1S(=O)(=O)c1ccc(F)cc1 [Example 76, (2S,4R)—N-([3-[6-(difluoromethoxy)pyridin-3-yl]-5-fluorophenyl]methyl)-4-fluoro-1-[(4-fluorobenzene)sulfonyl]pyrrolidine-2-carboxamide] | 39
O=C(NCc1cc(N2CCC3(CC2)CC3(F)F)c(F)cn1)[C@@H]1C[C@@H](F)CN1S(=O)(=O)c1ccc(F)cc1 [Example 69, (2S,4R)—N-[[4-(2,2-difluoro-6-azaspiro[2.5]octan-6-yl)-5-fluoro-2-pyridyl]methyl]-4-fluoro-1-(4-fluorophenyl)sulfonyl-pyrrolidine-2-carboxamide] | 14
O=C(NCc1cc(Cl)nc(-c2ccc(C(F)F)nc2)c1)[C@@H]1C[C@@H](F)CN1S(=O)(=O)c1ccc(F)cc1 [Example 60, (2S,4R)—N-[[2-chloro-6-[6-(difluoromethyl)-3-pyridyl]-4-pyridyl]methyl]-4-fluoro-1-(4-fluorophenyl)sulfonyl-pyrrolidine-2-carboxamide] | 55
Cc1cc(-c2cnc(C(F)(F)F)nc2)cc(CNC(=O)[C@@H]2C[C@@H](F)CN2S(=O)(=O)c2ccc(F)cc2)n1 [Example 48, (2S,4R)-4-fluoro-1-(4-fluorophenyl)sulfonyl-N-[[6-methyl-4-[2-(trifluoromethyl)pyrimidin-5-yl]-2-pyridyl]methyl]pyrrolidine-2-carboxamide] | 152
O=C(NCc1cc(F)cc(-c2cnc(C(F)(F)F)cn2)c1)[C@@H]1[C@@H](F)CCN1S(=O)(=O)c1ccc(F)cc1 [Example 98, (2R,3S)-3-fluoro-N-([3-fluoro-5-[5-(trifluoromethyl)pyrazin-2-yl]phenyl]methyl)-1-[(4-fluorobenzene)sulfonyl]pyrrolidine-2-carboxamide] | 4
COc1cc(CNC(=O)[C@@H]2C[C@@H](F)CN2S(=O)(=O)c2ccc(F)cc2)cc(-c2ccc(C(F)(F)F)nc2)c1 [Example 116, (2S,4R)-4-fluoro-1-(4-fluorophenyl)sulfonyl-N-[[3-methoxy-5-[6-(trifluoromethyl)-3-pyridyl]phenyl]methyl]pyrrolidine-2-carboxamide] | 47
O=C(NCc1cc(-c2ccc(OC(F)(F)F)cc2)ncn1)[C@@H]1[C@@H](F)CCN1S(=O)(=O)c1ccc(F)cc1 [Example 111, (2R,3S)-3-fluoro-1-(4-fluorophenyl)sulfonyl-N-[[6-[4-(trifluoromethoxy)phenyl]pyrimidin-4-yl]methyl]pyrrolidine-2-carboxamide] | 7
O=C(NCc1cc(F)cc(-n2cc(C(F)(F)F)cn2)c1)[C@@H]1C[C@@H](F)CN1S(=O)(=O)c1ccc(F)cc1 [Example 86, (2S,4R)-4-fluoro-1-(4-fluorophenyl)sulfonyl-N-[[3-fluoro-5-[4-(trifluoromethyl)pyrazol-1-yl]phenyl]methyl]pyrrolidine-2-carboxamide] | 119
O=C(NCc1cc(-c2cnc(C(F)(F)F)nc2)ncc1F)C1C2CC(CC2F)N1S(=O)(=O)c1ccc(F)cc1 (stereo not drawn) [Example 185, 5-fluoro-N-((5-fluoro-2-(2-(trifluoromethyl)pyrimidin-5-yl)pyridin-4-yl)methyl)-2-(4-fluorophenylsulfonyl)-2-aza-bicyclo[2.2.1]heptane-3-carboxamide] | 155
C[C@@H]1CC[C@@H](C(=O)NCc2cc(-c3ccc(C(F)(F)F)nc3)ncn2)N1S(=O)(=O)c1ccc(F)cc1 [Example 39, (2S,5R)-1-[(4-fluorobenzene)sulfonyl]-5-methyl-N-([6-[6-(trifluoromethyl)pyridin-3-yl]pyrimidin-4-yl]methyl)pyrrolidine-2-carboxamide] | 45
O=C(NCc1cn(-c2ccc(C(F)(F)F)cc2)nc1Cl)[C@@H]1CCN1S(=O)(=O)c1ccc(F)cc1 [Example 197, (2S)—N-([3-chloro-1-[4-(trifluoromethyl)phenyl]-1H-pyrazol-4-yl]methyl)-1-[(4-fluorobenzene)sulfonyl]azetidine-2-carboxamide] | 15
O=C(NCc1cc(N2CCC(C(F)(F)F)CC2)c(F)cn1)[C@@H]1C[C@@H](F)CN1S(=O)(=O)c1ccc(F)cc1 [Example 144, (2S,4R)-4-fluoro-N-((5-fluoro-4-(4-(trifluoromethyl)piperidin-1-yl)pyridin-2-yl)methyl)-1-(4-fluorophenylsulfonyl)pyrrolidine-2-carboxamide] | 56
O=C(NCc1cc(-c2ccc(OC(F)(F)F)cc2)ncn1)[C@@H]1C[C@@H](F)CN1S(=O)(=O)c1ccc(F)cc1 [Example 145, (2S,4R)-4-fluoro-1-(4-fluorophenylsulfonyl)-N-((6-(4-(trifluoromethoxy)phenyl)pyrimidin-4-yl)methyl)pyrrolidine-2-carboxamide] | 21
O=C(NCc1cc(-c2cnc(C(F)(F)F)cn2)ccn1)[C@@H]1C[C@@H](F)CN1S(=O)(=O)c1ccc(F)cc1 [Example 82, (2S,4R)-4-fluoro-1-(4-fluorophenyl)sulfonyl-N-[[4-[5-(trifluoromethyl)pyrazin-2-yl]-2-pyridyl]methyl]pyrrolidine-2-carboxamide] | 189
C[C@@]1(F)C[C@@H](C(=O)NCc2cc(-c3ccc(C(F)(F)F)nc3)ncn2)N(S(=O)(=O)c2ccc(F)cc2)C1 (single isomer, unassigned) [Example 107] | 90
COc1cnc(-c2cnc(C(F)(F)F)nc2)cc1CNC(=O)[C@@H]1C[C@@H](F)CN1S(=O)(=O)c1ccc(F)cc1 [Example 196, (2S,4R)-4-fluoro-1-(4-fluorophenylsulfonyl)-N-((5-methoxy-2-(2-(trifluoromethyl)pyrimidin-5-yl)pyridin-4-yl)methyl)pyrrolidine-2-carboxamide] | 134
COc1cnc(CNC(=O)[C@@H]2C[C@@H](F)CN2S(=O)(=O)c2ccc(F)cc2)cc1-c1ccc(C(F)(F)F)nc1 [Example 108, (2S,4R)-4-fluoro-1-[(4-fluorobenzene)sulfonyl]-N-([5-methoxy-4-[6-(trifluoromethyl)pyridin-3-yl]pyridin-2-yl]methyl)pyrrolidine-2-carboxamide] | 256
O=C(NCc1cc(F)nc(-c2ccc(C(F)(F)F)nc2)c1)[C@@H]1C[C@@H](F)CN1S(=O)(=O)c1ccc(F)cc1 [Example 119, (2S,4R)-4-fluoro-N-([2-fluoro-6-[6-(trifluoromethyl)pyridin-3-yl]pyridin-4-yl]methyl)-1-[(4-fluorobenzene)sulfonyl]pyrrolidine-2-carboxamide] | 52
N#Cc1cnc(-c2ccc(C(F)(F)F)nc2)cc1CNC(=O)[C@@H]1[C@@H](F)CCN1S(=O)(=O)c1ccc(F)cc1 [Example 166, (2R,3S)—N-([5-cyano-2-[6-(trifluoromethyl)pyridin-3-yl]pyridin-4-yl]methyl)-3-fluoro-1-[(4-fluorobenzene)sulfonyl]pyrrolidine-2-carboxamide] | 13
